Results: ChEMBL document CHEMBL3885881, “DrugMatrix”

Species on record: Rattus norvegicus
Experiment: DrugMatrix - Regimen: Daily Repeat
Assay type: toxicity, organism-based, Sprague-Dawley
Design: regimen Daily Repeat, gender Male, age 6-8 weeks
Conditions: in vivo, po, route oral GAVAGE, vehicle .5 % CMC; for ABSOLUTE BASOPHIL / ABSOLUTE EOSINOPHIL / ABSOLUTE LYMPHOCYTE / ABSOLUTE MONOCYTE / ABSOLUTE SEGMENTED NEUTROPHIL / BASOPHIL / EOSINOPHIL / ERYTHROCYTE COUNT / HEMATOCRIT / HEMOGLOBIN / LEUKOCYTE COUNT / LYMPHOCYTE / MEAN CORPUSCULAR HEMOGLOBIN / MEAN CORPUSCULAR HEMOGLOBIN CONCENTRATION / MEAN CORPUSCULAR VOLUME / MONOCYTE / NEUTROPHIL / NUCLEATED RED BLOOD CELLS / PLATELET COUNT: tissue Blood; for ALANINE AMINOTRANSFERASE / ALBUMIN / ALKALINE PHOSPHATASE / ASPARTATE AMINOTRANSFERASE / BLOOD UREA NITROGEN / CARBON DIOXIDE / CHLORIDE / CHOLESTEROL / CREATINE PHOSPHOKINASE / CREATININE / GLUCOSE / LACTATE DEHYDROGENASE / LIPASE / PHOSPHORUS / POTASSIUM / SODIUM / TOTAL BILIRUBIN / TOTAL PROTEIN / URIC ACID: tissue Plasma
[1] = 0 mg/kg, 72 h, dose level Control, time 3 day
[2] = 0 mg/kg, 120 h, dose level Control, time 5 day
[3] = 1 mg/kg, 72 h, dose level Low, time 3 day

CCOc1nc2cccc(C(=O)O)c2n1Cc1ccc(-c2ccccc2-c2nnn[nH]2)cc1
ABSOLUTE BASOPHIL [1]: 0 CELLS/uL | ABSOLUTE EOSINOPHIL [1]: 35.67 CELLS/uL | ABSOLUTE LYMPHOCYTE [1]: 9125.17 CELLS/uL | ABSOLUTE MONOCYTE [1]: 50.17 CELLS/uL | ABSOLUTE SEGMENTED NEUTROPHIL [1]: 722.33 CELLS/uL | BASOPHIL [1]: 0% | EOSINOPHIL [1]: 0.33% | ERYTHROCYTE COUNT [1]: 5.35 x10E6/uL | HEMATOCRIT [1]: 33.58% | HEMOGLOBIN [1]: 13.35 G/DL | LEUKOCYTE COUNT [1]: 9.93 x10E3/uL | LYMPHOCYTE [1]: 91.67% | MEAN CORPUSCULAR HEMOGLOBIN [1]: 25 pg | MEAN CORPUSCULAR HEMOGLOBIN CONCENTRATION [1]: 39.8 G/DL | MEAN CORPUSCULAR VOLUME [1]: 62.77 fL | MONOCYTE [1]: 0.67% | NEUTROPHIL [1]: 7.33% | NUCLEATED RED BLOOD CELLS [1]: 0 /100WBC | PLATELET COUNT [1]: 866.17 x10E3/uL | ALANINE AMINOTRANSFERASE [1]: 57.17 u/L | ALBUMIN [1]: 4.22 G/DL | ALKALINE PHOSPHATASE [1]: 391 u/L | ASPARTATE AMINOTRANSFERASE [1]: 95.17 u/L | BLOOD UREA NITROGEN [1]: 13.67 mg/dL | CARBON DIOXIDE [1]: 30 mmol/L | CHLORIDE [1]: 102.5 MEQ/L | CHOLESTEROL [1]: 72 mg/dL | CREATINE PHOSPHOKINASE [1]: 485.67 u/L | CREATININE [1]: 0.27 mg/dL | GLUCOSE [1]: 152 mg/dL | LACTATE DEHYDROGENASE [1]: 372.67 u/L | LIPASE [1]: 9.83 u/L | PHOSPHORUS [1]: 12.47 mg/dL | POTASSIUM [1]: 6.81 MEQ/L | SODIUM [1]: 144.1 MEQ/L | TOTAL BILIRUBIN [1]: 0.23 mg/dL | TOTAL PROTEIN [1]: 5.93 G/DL | URIC ACID [1]: 1.9 mg/dL | ABSOLUTE BASOPHIL [2]: 0 CELLS/uL | ABSOLUTE EOSINOPHIL [2]: 67.33 CELLS/uL | ABSOLUTE LYMPHOCYTE [2]: 11419.17 CELLS/uL | ABSOLUTE MONOCYTE [2]: 203.17 CELLS/uL | ABSOLUTE SEGMENTED NEUTROPHIL [2]: 1327 CELLS/uL | BASOPHIL [2]: 0% | EOSINOPHIL [2]: 0.5% | ERYTHROCYTE COUNT [2]: 5.65 x10E6/uL | HEMATOCRIT [2]: 35.3% | HEMOGLOBIN [2]: 13.98 G/DL | LEUKOCYTE COUNT [2]: 13.02 x10E3/uL | LYMPHOCYTE [2]: 88% | MEAN CORPUSCULAR HEMOGLOBIN [2]: 24.78 pg | MEAN CORPUSCULAR HEMOGLOBIN CONCENTRATION [2]: 39.63 G/DL | MEAN CORPUSCULAR VOLUME [2]: 62.58 fL | MONOCYTE [2]: 1.33% | NEUTROPHIL [2]: 10.17% | NUCLEATED RED BLOOD CELLS [2]: 0 /100WBC | PLATELET COUNT [2]: 1213.83 x10E3/uL | ALANINE AMINOTRANSFERASE [2]: 49.67 u/L | ALBUMIN [2]: 4.28 G/DL | ALKALINE PHOSPHATASE [2]: 362.33 u/L | ASPARTATE AMINOTRANSFERASE [2]: 99 u/L | BLOOD UREA NITROGEN [2]: 20.67 mg/dL | CARBON DIOXIDE [2]: 26.33 mmol/L | CHLORIDE [2]: 102 MEQ/L | CHOLESTEROL [2]: 63.83 mg/dL | CREATINE PHOSPHOKINASE [2]: 481.83 u/L | CREATININE [2]: 0.21 mg/dL | GLUCOSE [2]: 158 mg/dL | LACTATE DEHYDROGENASE [2]: 656.33 u/L | LIPASE [2]: 10.67 u/L | PHOSPHORUS [2]: 12.27 mg/dL | POTASSIUM [2]: 6.17 MEQ/L | SODIUM [2]: 143.35 MEQ/L | TOTAL BILIRUBIN [2]: 0.17 mg/dL | TOTAL PROTEIN [2]: 6.13 G/DL | URIC ACID [2]: 1.48 mg/dL | ABSOLUTE BASOPHIL [3]: 0 CELLS/uL | ABSOLUTE EOSINOPHIL [3]: 0 CELLS/uL | ABSOLUTE LYMPHOCYTE [3]: 10188.33 CELLS/uL | ABSOLUTE MONOCYTE [3]: 75.33 CELLS/uL | ABSOLUTE SEGMENTED NEUTROPHIL [3]: 1069.67 CELLS/uL | BASOPHIL [3]: 0% | EOSINOPHIL [3]: 0% | ERYTHROCYTE COUNT [3]: 5.49 x10E6/uL | HEMATOCRIT [3]: 34.4% | HEMOGLOBIN [3]: 13.73 G/DL | LEUKOCYTE COUNT [3]: 11.33 x10E3/uL | LYMPHOCYTE [3]: 89.67% | MEAN CORPUSCULAR HEMOGLOBIN [3]: 25.03 pg | MEAN CORPUSCULAR HEMOGLOBIN CONCENTRATION [3]: 39.93 G/DL | MEAN CORPUSCULAR VOLUME [3]: 62.7 fL | MONOCYTE [3]: 0.67% | NEUTROPHIL [3]: 9.67% | NUCLEATED RED BLOOD CELLS [3]: 0 /100WBC | PLATELET COUNT [3]: 1183.67 x10E3/uL | ALANINE AMINOTRANSFERASE [3]: 53.67 u/L | ALBUMIN [3]: 4.23 G/DL | ALKALINE PHOSPHATASE [3]: 410.67 u/L | ASPARTATE AMINOTRANSFERASE [3]: 90 u/L | BLOOD UREA NITROGEN [3]: 16.67 mg/dL | CARBON DIOXIDE [3]: 29 mmol/L | CHLORIDE [3]: 102.67 MEQ/L | CHOLESTEROL [3]: 81 mg/dL | CREATINE PHOSPHOKINASE [3]: 371 u/L | CREATININE [3]: 0.23 mg/dL | GLUCOSE [3]: 155.67 mg/dL | LACTATE DEHYDROGENASE [3]: 328 u/L | LIPASE [3]: 8 u/L | PHOSPHORUS [3]: 12.13 mg/dL | POTASSIUM [3]: 6.17 MEQ/L | SODIUM [3]: 143.6 MEQ/L | TOTAL BILIRUBIN [3]: 0.2 mg/dL | TOTAL PROTEIN [3]: 5.9 G/DL | URIC ACID [3]: 1.6 mg/dL
